Measured values taken from patent US11207312B2, “Metallo-beta-lactamase inhibitors and methods of use thereof” (priority 2017, dated 2021).

Legend:
NDM-1 = NDM-1 (Klebsiella pneumoniae, UniProt C7C422); assay: biochemical; type: biochemical; conditions: CCF2-FA fluorescence assay, 2 hours at 25° C.
Outline: (§1)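 Metallo-β-lactamase activity read by fluorescence against CCF2-FA (1.25 μM final) in 100 mM KH2PO4 pH 7 with 0.005% Tween-20 and 10 μM ZnSO4; enzyme final at 1 pM NDM-1, 2 pM IMP-1 or 30 pM VIM-1. Inhibitor at 20 to 0.00063 μM, 2 h at 25° C; IC50 by 4-parameter fit.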

[1] = test system: P. aeruginosa MB9799 (efflux-, IMP-1 plasmid); type: cell-based, Pseudomonas aeruginosa; conditions: efflux − (MB9799) strain; imipenem at 2 μg/mL; in the presence of a class A, C, D serine β-lactamase inhibitor closely related to relebactam
Outline: (§2)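 PAO1-derived isogenic pair (oprD+, inducible AmpC), efflux+ MB5919 or efflux− MB5890 parent, carrying an electroporated IMP-1 plasmid from a clinical isolate. Microbroth MIC with fixed imipenem and/or ceftazidime (usually CLSI breakpoint) plus fixed class A/C inhibitor; MBL inhibitor serially titrated, concentration restoring susceptibility recorded.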

VIM-2 = VIM-2 (Escherichia coli, UniProt Q5U7L7); assay: biochemical; conditions: CCF2-FA fluorescence assay; read-out: VIM2 IC50
[2] = test system: P. aeruginosa MB9798 (efflux+, IMP-1 plasmid); conditions: for MB9798 MITC95 P. aeruginosa uM Efflux WT: efflux + (MB9798) strain, imipenem at 2 μg/mL, in the presence of a class A, C, D serine β-lactamase inhibitor closely related to relebactam; for Efflux ratio: fold difference between efflux+ (MB9798) and efflux− (MB9799) strains
Outline: as §2

VIM-1 = VIM-1 (Pseudomonas aeruginosa (strain ATCC 15692 / DSM 22644 / CIP 104116 / JCM 14847 / LMG 12228 / 1C / PRS 101 / PAO1), UniProt A0A0F7KYQ8); assay: biochemical; conditions: CCF2-FA fluorescence assay, 2 hours at 25° C.; read-out: VIM1 IC50
Outline: as §1

IMP-1 = IMP-1 (Serratia marcescens, UniProt P52699); assay: biochemical; conditions: CCF2-FA fluorescence assay, 2 hours at 25° C.; read-out: IMP1 IC50
Outline: as §1

[3] = test system: Klebsiella pneumoniae expressing VIM-1 (IHMA599644); type: cell-based; conditions: with imipenem 1 μg/ml; 95% inhibition of bacterial growth
Outline: (§3)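 Imipenem 1 μg/ml + inhibitor titration in cation-adjusted MHB (1.1× stock medium); overnight-cultured colonies suspended in saline, diluted 1:100. 35 °C, 22–24 h; absorbance read. MITC95 = lowest compound conc giving 95% growth inhibition.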

[4] = test system: Serratia marcescens expressing IMP-1 (CL5741); type: cell-based; conditions: with imipenem 1 μg/ml; 95% inhibition of bacterial growth
Outline: as §3

[5] = test system: Escherichia coli expressing NDM-1 (CLB30016); type: cell-based; conditions: with imipenem 1 μg/ml; 95% inhibition of bacterial growth
Outline: as §3

Sequence of NDM-1 (C7C422 whole entry, looked up, species assumed): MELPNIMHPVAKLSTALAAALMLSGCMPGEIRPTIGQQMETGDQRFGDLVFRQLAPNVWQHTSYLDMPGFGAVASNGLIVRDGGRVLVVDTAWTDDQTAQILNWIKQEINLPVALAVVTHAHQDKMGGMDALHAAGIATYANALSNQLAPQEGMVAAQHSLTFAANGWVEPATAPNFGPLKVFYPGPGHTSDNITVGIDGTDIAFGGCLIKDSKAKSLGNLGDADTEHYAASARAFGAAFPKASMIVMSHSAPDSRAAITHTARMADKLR
Sequence of IMP-1 (P52699 whole entry, looked up, species assumed): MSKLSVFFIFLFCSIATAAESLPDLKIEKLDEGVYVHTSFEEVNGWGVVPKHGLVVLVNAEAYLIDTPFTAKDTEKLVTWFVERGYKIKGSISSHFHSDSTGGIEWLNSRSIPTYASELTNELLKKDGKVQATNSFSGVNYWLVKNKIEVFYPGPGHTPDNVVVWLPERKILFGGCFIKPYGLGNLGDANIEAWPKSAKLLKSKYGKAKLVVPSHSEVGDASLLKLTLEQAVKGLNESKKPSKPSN

SMILES	IC50 (NDM-1) [nM]	MB9799 MITC95 P. aeruginosa uM Efflux Mutant [1] [µM]	IC50 (VIM-2) [nM]	MB9798 MITC95 P. aeruginosa uM Efflux WT [2] [µM]	Efflux ratio [2]	IC50 (VIM-1) [nM]	IC50 (IMP-1) [nM]	IHMA599644 K. pneumoniae MITC95 VIM [3] [µM]	CL5741 S. marcescens MITC95 IMP [4] [µM]	CLB30016 E. coli MITC95 NDM [5] [µM]
NS(=O)(=O)c1c(S(=O)(=O)C2CNC2)ccc(N2CC[C@H](CO)[C@H](F)C2)c1-c1nnn[nH]1 [Example 61, 6-(azetidin-3-ylsulfonyl)-3-[(3S,4R)-3-fluoro-4-(hydroxymethyl)piperidin-1-yl]-2-(1H-tetrazol-5-yl)benzenesulfonamide]	0.9	1.56	2.12	6.25	4.00	0.44	1.28	6.25	3.13	1.56
NS(=O)(=O)c1c(S(=O)(=O)N[C@@H]2CCNC2)ccc(N2CCOC(CO)C2)c1-c1nnn[nH]1 (stereo partly drawn) [Example 103, 4-[2-(hydroxymethyl)morpholin-4-yl]-N1-[(3R)-pyrrolidin-3-yl]-3-(1H-tetrazol-5-yl)benzene-1,2-disulfonamide]	0.68	1.56	0.59	3.13	2.00	0.42	3.46	6.25	3.13	3.13
NS(=O)(=O)c1c(S(=O)(=O)N[C@@H]2CCNC2)ccc(N2CCOC(CCO)C2)c1-c1nnn[nH]1 (stereo partly drawn) [Example 105, 4-[2-(2-hydroxyethyl)morpholin-4-yl]-N1-[(3R)-pyrrolidin-3-yl]-3-(1H-tetrazol-5-yl)benzene-1,2-disulfonamide]	0.25	6.25	1.79	12.50	2.00	0.96	1.16	12.50	6.25	6.25
NS(=O)(=O)c1c(S(=O)(=O)C2CNC2)ccc(N2CCC(CCO)CC2)c1-c1nnn[nH]1 [Example 56, 6-(azetidin-3-ylsulfonyl)-3-[4-(2-hydroxyethyl)piperidin-1-yl]-2-(1H-tetrazol-5-yl)benzenesulfonamide]	0.76	1.56	0.82	6.25	4.00	0.25	0.45	6.25	3.13	6.25
NC[C@@H](O)CNS(=O)(=O)c1ccc(N2C[C@@H]3[C@@H](CN)[C@@H]3C2)c(-c2nn[nH]n2)c1S(N)(=O)=O [Example 11]	8.96	1.56	24.7	6.25	4.00	2.03	35.5	0.78	1.56	0.78
NS(=O)(=O)c1c(S(=O)(=O)N[C@@H]2CCNC2)ccc(N2CCC(C(F)F)CC2)c1-c1nnn[nH]1 [Example 90, 4-[4-(difluoromethyl)piperidin-1-yl]-N1-[(3R)-pyrrolidin-3-yl]-3-(1H-tetrazol-5-yl)benzene-1,2-disulfonamide]	0.43	1.56	1.02	6.25	4.00	0.34	0.77	3.13	3.13	3.13
NC[C@@H](O)CNS(=O)(=O)c1ccc(N2CCC(F)(CN)CC2)c(-c2nn[nH]n2)c1S(N)(=O)=O [Example 3]	2.43	0.39	3.68	0.78	2.00	0.61	3.95	0.78	1.56	0.78
NS(=O)(=O)c1c(S(=O)(=O)C2CNC2)ccc(N2CCC(O)CC2)c1-c1nnn[nH]1 [Example 31, 6-(azetidin-3-ylsulfonyl)-3-(4-hydroxypiperidin-1-yl)-2-(1H-tetrazol-5-yl)benzenesulfonamide]	1.67	1.56	3.36	6.25	4.00	0.89	1.89	3.13	3.13	1.56
NC[C@@H](O)CNS(=O)(=O)c1ccc(N2CC[C@@H](N)C2)c(-c2nn[nH]n2)c1S(N)(=O)=O [Example 125, N1-((R)-3-amino-2-hydroxypropyl)-4-((R)-3-aminopyrrolidin-1-yl)-3-(2H-tetrazol-5-yl)benzene-1,2-disulfonamide]	88.1	3.13	53.9	6.25	2.00	10.9	61.4	1.56	3.13	0.78
CC1CN(c2ccc(S(=O)(=O)NC[C@H](O)CN)c(S(N)(=O)=O)c2-c2nn[nH]n2)CCN1CCO.O=C(O)C(F)(F)F.O=C(O)C(F)(F)F (stereo partly drawn) [Example 176, N1-((R)-3-amino-2-hydroxypropyl)-4-(4-(2-hydroxyethyl)-3-methylpiperazin-1-yl)-3-(2H-tetrazol-5-yl)benzene-1,2-disulfonamide bis(2,2,2-trifluoroacetate) salt]	2.51	1.56	11.7	3.13	2.00	2.76	5.1	1.56	0.39	0.39
NC[C@@H](O)CNS(=O)(=O)c1ccc(N2CC[C@@H](CN)[C@@H](F)C2)c(-c2nn[nH]n2)c1S(N)(=O)=O (racemic) [Example 6]	1.12	0.39	4.19	0.78	2.00	0.17	3.38	0.78	0.20	0.20
CN(C)C1(C)CN(c2ccc(S(=O)(=O)N[C@@H]3CCNC3)c(S(N)(=O)=O)c2-c2nnn[nH]2)C1 [Example 114, 4-[3-(dimethylamino)-3-methylazetidin-1-yl]-N1-[(3R)-pyrrolidin-3-yl]-3-(1H-tetrazol-5-yl)benzene-1,2-disulfonamide]	12	3.13	4.27	12.50	4.00	1.24	50.5	3.13	3.13	1.56
NC[C@@H](O)CNS(=O)(=O)c1ccc(N[C@H]2C[C@@H](N)C2)c(-c2nnn[nH]2)c1S(N)(=O)=O [Example 143, N1-((R)-3-amino-2-hydroxypropyl)-4-(((1s,3S)-3-aminocyclobutyl)amino)-3-(1H-tetrazol-5-yl)benzene-1,2-disulfonamide]	111	3.13	200	6.25	2.00	100	70.4	12.50	1.56	1.56
